Measured values reported in US20110224231A1, “Novel Lactams as Beta Secretase Inhibitors” (Pfizer Inc., priority 2008, published 2011).

Biological target: T1, soluble human BACE (Homo sapiens, UniProt P56817)
T1 construct: cells secreting human recombinant soluble BACE; made in house; conditioned medium
Assay: BACE activity Cell Free Assay (ELISA of cleaved synthetic APP substrate)
Type: biochemical
Description: A synthetic APP substrate that can be cleaved by beta˜secretase and having N-terminal biotin is used to assay beta-secretase activity in the presence or absence of the inhibitory compounds. […] The substrate and test compounds are added to 384 well polypropylene plates. The reaction is initiated by the addition of soluble BACE enzyme to a final volume of 12.5 μL per well. The final assay conditions are: 0.001˜300 μM compound inhibitor, 0.05M sodium acetate (pH 4.5), 3 μM substrate, soluble human BACE, and 2% DMSO. Concentrated conditioned media from cells secreting human recombinant soluble BACE was titrated to provide a source of BACE enzyme. The cell media can be used as either a crude BACE prep or BACE can be purified using any number of techniques, including immobilized BACE inhibitor purification columns. The assay mixture is incubated for 1 hour at 37° C., and the reaction is quenched by the addition of an equal volume of 0.1M Tris, pH 8. Half of the quenched mix is incubated on clear streptavidin coated 384 well polystyrene plates for 1 hour. An ELISA is then performed using an in˜house antibody that specifically recognizes the new C˜terminus created after cleavage by BACE. […] (These polyclonal antibodies were raised in rabbits by immunizing with antigen comprised of six amino acid residues present at the carboxy terminus of the wild-type soluble APPbeta sequence (NH2-ISEVKM-COOH) or seven amino acid residues present at the carboxy terminus of the Swedish mutation at the beta cleavage site (NH2-EISEVNL˜COOH) conjugated to keyhole limpet hemacyanin by methods known to those skilled in the art.) A secondary anti˜species Horseradish Peroxidase (HRP) conjugated antibody is then utilized. The readout, following assay development with TMB substrate and quenching with 0.09M sulfuric acid, is absorbance at 450 nm.

T1 sequence (P56817 46-457 limits assumed): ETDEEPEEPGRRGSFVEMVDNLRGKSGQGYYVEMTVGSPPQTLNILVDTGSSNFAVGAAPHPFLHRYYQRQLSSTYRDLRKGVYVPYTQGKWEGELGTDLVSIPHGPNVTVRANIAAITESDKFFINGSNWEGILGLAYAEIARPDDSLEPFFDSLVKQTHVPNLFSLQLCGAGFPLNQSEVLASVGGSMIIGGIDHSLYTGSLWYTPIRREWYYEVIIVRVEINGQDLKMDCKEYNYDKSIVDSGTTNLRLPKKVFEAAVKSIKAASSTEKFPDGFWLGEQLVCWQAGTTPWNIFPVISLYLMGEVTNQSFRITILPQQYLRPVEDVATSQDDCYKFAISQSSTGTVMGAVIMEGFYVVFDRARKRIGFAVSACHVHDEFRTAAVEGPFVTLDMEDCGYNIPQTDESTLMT

SMILES	IC50 [µM]
CCOc1cccc(CN2CCC3(C=CC(=O)N3c3cccc(F)c3)CC2C)c1 (racemic) [Example 1, Racemic (5R,7S),(5S,7R)-8-(3-ethoxybenzyl)-1-(3-fluorophenyl)-7-methyl-1,8-diazaspiro[4.5]dec-3-en-2-one]	10 to 100
Cc1ccc(Oc2cccc(CN3CCC4(C=CC(=O)N4c4cccc(F)c4)CC3C)c2)cc1 (racemic) [Example 2, Racemic (5R,7S),(5S,7R)-1-(3-fluorophenyl)-7-methyl-8-[3-(4-methylphenoxy)benzyl]-1,8-diazaspiro[4.5]dec-3-en-2-one]	1 to 10
COc1ccc(Oc2cccc(CN3CCC4(C=CC(=O)N4c4cccc(F)c4)CC3C)c2)cc1 (racemic) [Example 3, Racemic (5R,7S),(5S,7R)-1-(3-fluorophenyl)-8-[3-(4-methoxyphenoxy)benzyl]-7-methyl-1,8-diazaspiro[4.5]dec-3-en-2-one]	10 to 100
CC1CC2(C=CC(=O)N2c2cccc(F)c2)CCN1Cc1cccc(S(=O)(=O)N2CCCC2)c1 (racemic) [Example 4, Racemic (5R,7S),(5S,7R)-1-(3-fluorophenyl)-7-methyl-8-[3-(pyrrolidin-1-ylsulfonyl)benzyl]-1,8-diazaspiro[4.5]dec-3-en-2-one]	10 to 100
CC1CC2(C=CC(=O)N2c2cccc(F)c2)CCN1Cc1cccc(COc2cc(F)cc(F)c2)c1 (racemic) [Example 5, Racemic (5R,7S),(5S,7R)-8-{3-[(3,5-difluorophenoxy)methyl]benzyl}-1-(3-fluorophenyl)-7-methyl-1,8-diazaspiro[4.5]dec-3-en-2-one]	10 to 100
CC1CC2(C=CC(=O)N2c2cccc(F)c2)CCN1Cc1cccc(O)n1 (racemic) [Example 6, Racemic (5R,7S),(5S,7R)-1-(3-fluorophenyl)-8-[(6-hydroxypyridin-2-yl)methyl]-7-methyl-1,8-diazaspiro[4.5]dec-3-en-2-one]	100 to 300
CC1CC2(C=CC(=O)N2c2cccc(F)c2)CCN1Cc1cccc(C#N)c1 (racemic) [Example 7, Racemic 3-{[(5R,7S),(5S,7R)-1-(3-fluorophenyl)-7-methyl-2-oxo-1,8-diazaspiro[4.5]dec-3-en-8-yl]methyl}benzonitrile]	10 to 100
COc1cccc(CN2CCC3(C=CC(=O)N3c3cccc(F)c3)CC2C)c1 (racemic) [Example 8, Racemic (5R,7S),(5S,7R)-1-(3-fluorophenyl)-8-(3-methoxybenzyl)-7-methyl-1,8-diazaspiro[4.5]dec-3-en-2-one]	100 to 300
CC1CC2(C=CC(=O)N2c2cccc(F)c2)CCN1Cc1ccc(O)cc1O (racemic) [Example 9, Racemic (5R,7S),(5S,7R)-8-(2,4-dihydroxybenzyl)-1-(3-fluorophenyl)-7-methyl-1,8-diazaspiro[4.5]dec-3-en-2-one]	100 to 300
CCCn1nccc1CN1CCC2(C=CC(=O)N2c2cccc(F)c2)CC1C (racemic) [Example 10, Racemic (5R,7S),(5S,7R)-1-(3-fluorophenyl)-7-methyl-8-[(1-propyl-1H-pyrazol-5-yl)methyl]-1,8-diazaspiro[4.5]dec-3-en-2-one]	10 to 100
CC1CC2(C=CC(=O)N2c2cccc(F)c2)CCN1Cc1ccc2[nH]ccc2c1 (racemic) [Example 11, Racemic (5R,7S),(5S,7R)-1-(3-fluorophenyl)-8-(1H-indol-5-ylmethyl)-7-methyl-1,8-diazaspiro[4.5]dec-3-en-2-one]	10 to 100
COc1cc(CN2CCC3(C=CC(=O)N3c3cccc(F)c3)CC2C)ccc1O (racemic) [Example 12, Racemic (5R,7S),(5S,7R)-1-(3-fluorophenyl)-8-(4-hydroxy-3-methoxybenzyl)-7-methyl-1,8-diazaspiro[4.5]dec-3-en-2-one]	1 to 10
COc1cc(CN2CCC3(C=CC(=O)N3c3cccc(F)c3)CC2C)ccc1F (racemic) [Example 13, Racemic (5R,7S),(5S,7R)-8-(4-fluoro-3-methoxybenzyl)-1-(3-fluorophenyl)-7-methyl-1,8-diazaspiro[4.5]dec-3-en-2-one]	10 to 100
